Laboratory results taken from US10988477B2 (Merck Patent GmbH, priority 2018, dated 2021).
pIC50, pKi: −log10 of the molar value.

Assays:
[1] = target: intracellular GCN2 (phosphorylation of the GCN2 substrate eIF2α) (Homo sapiens, UniProt Q9P2K8); assay: GCN2 cellular inhibition assay (AlphaScreen SureFire P-eIF2α Ser51, borrelidin-treated U2OS cells); assay type: cell-based; conditions: compounds of Formula IV; biomarker assay, phosphorylated eIF2α Ser51 in borrelidin-treated U2OS cells
Summary of the method: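 Compound effect on GCN2 is gauged by eIF2α Ser51 phosphorylation in borrelidin-challenged U2OS cells (10 μM, 1 h). Top compound level is 40 μM final.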

[2] = target: GCN2 kinase (Homo sapiens, UniProt Q9P2K8); assay: GCN2 enzyme inhibition assay (Transcreener ADP2 fluorescence polarization); assay type: biochemical; conditions: Enzyme activity for compounds of Formula IV; Ki(app), 280 μM ATP, 25° C.
Sequence of GCN2 kinase (Q9P2K8 whole entry): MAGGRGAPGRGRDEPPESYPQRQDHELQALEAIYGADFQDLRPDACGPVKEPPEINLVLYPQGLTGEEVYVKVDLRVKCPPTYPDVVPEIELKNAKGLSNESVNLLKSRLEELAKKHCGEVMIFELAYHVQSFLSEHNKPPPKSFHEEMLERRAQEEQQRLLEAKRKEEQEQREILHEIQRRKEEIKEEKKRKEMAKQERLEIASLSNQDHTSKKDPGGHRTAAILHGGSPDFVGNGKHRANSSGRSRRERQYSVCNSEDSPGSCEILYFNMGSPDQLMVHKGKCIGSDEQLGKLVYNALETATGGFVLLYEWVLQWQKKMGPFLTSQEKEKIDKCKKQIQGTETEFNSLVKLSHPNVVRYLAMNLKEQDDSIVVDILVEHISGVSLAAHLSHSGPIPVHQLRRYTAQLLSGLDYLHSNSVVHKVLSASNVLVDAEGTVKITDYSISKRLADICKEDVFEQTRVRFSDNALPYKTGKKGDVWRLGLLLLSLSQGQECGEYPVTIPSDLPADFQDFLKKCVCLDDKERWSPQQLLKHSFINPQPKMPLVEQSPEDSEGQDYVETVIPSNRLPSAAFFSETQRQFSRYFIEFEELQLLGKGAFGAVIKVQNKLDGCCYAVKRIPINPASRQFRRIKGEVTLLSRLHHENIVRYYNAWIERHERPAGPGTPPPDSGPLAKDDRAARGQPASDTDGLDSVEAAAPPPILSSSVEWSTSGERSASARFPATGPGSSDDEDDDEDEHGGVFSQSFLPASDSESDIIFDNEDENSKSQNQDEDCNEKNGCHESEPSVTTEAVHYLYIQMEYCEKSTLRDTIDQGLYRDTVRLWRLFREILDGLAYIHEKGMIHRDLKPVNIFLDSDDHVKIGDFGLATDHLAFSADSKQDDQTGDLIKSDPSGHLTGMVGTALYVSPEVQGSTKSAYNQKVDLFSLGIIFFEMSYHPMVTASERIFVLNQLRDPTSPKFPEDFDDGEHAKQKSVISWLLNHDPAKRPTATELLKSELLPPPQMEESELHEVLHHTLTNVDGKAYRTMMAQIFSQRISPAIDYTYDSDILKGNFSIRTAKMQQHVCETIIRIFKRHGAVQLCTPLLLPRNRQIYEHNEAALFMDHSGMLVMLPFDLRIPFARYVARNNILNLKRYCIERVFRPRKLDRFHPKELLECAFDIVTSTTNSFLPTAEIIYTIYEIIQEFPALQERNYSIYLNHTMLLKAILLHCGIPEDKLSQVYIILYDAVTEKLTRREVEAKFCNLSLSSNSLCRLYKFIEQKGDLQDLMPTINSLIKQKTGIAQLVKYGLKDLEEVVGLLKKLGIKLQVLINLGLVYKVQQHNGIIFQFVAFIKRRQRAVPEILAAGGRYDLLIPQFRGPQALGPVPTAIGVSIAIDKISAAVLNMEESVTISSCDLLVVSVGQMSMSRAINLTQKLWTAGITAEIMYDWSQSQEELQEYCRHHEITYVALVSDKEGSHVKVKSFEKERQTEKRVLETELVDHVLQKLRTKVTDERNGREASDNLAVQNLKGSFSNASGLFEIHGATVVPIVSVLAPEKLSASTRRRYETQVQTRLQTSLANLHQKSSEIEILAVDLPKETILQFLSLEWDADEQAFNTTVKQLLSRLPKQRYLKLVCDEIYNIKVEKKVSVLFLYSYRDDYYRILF
Summary of the method: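 Human GCN2 (4 nM) preincubated 10 min with compound (0–8 μM) and 200 μM (RS)7 peptide in Tris-HCl pH 7.5, NaCl, MgCl2, DTT. Reaction started with 280 μM ATP, run 1 h at 25 °C. ADP detected by Transcreener fluorescence polarization. IC50 and Ki(app) fitted by tight-binding algorithm.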

Sequence of intracellular GCN2 (phosphorylation of the GCN2 substrate eIF2α) (Q9P2K8 whole entry): as above

pIC50 [1]	pKi [2]	Structure (SMILES)
< 5.30	6.00 to 7.00	O=S(=O)(C1CCCN(c2ccnc(-c3cnc4cnc(C(F)F)cn34)n2)C1)N1CCOCC1 (stereo not drawn) [IV-172, 4-((1-(2-(6-(Difluoromethyl)imidazo[1,2-a]pyrazin-3-yl)pyrimidin-4-yl)piperidin-3-yl)sulfonyl)morpholine]
< 5.30	6.00 to 7.00	FC(F)c1cn2c(-c3nccc(N4CCCC(c5cscn5)C4)n3)cnc2cn1 (stereo not drawn) [IV-174, 4-(1-(2-(6-(Difluoromethyl)imidazo[1,2-a]pyrazin-3-yl)pyrimidin-4-yl)piperidin-3-yl)thiazole]
< 5.30	6.00 to 7.00	OCc1ccc(-c2ccnc(-c3cnc4cnc(C(F)F)cn34)n2)s1 [IV-175, (5-(2-(6-(Difluoromethyl)imidazo[1,2-a]pyrazin-3-yl)pyrimidin-4-yl)thiophen-2-yl)methanol]
< 5.30	6.00 to 7.00	NC(=O)c1ccc(F)c(-c2ccnc(-c3cnc4cnc(C(F)F)cn34)n2)c1 [IV-176, 3-(2-(6-(Difluoromethyl)imidazo[1,2-a]pyrazin-3-yl)pyrimidin-4-yl)-4-fluorobenzamide]
< 5.30	6.00 to 7.00	NS(=O)(=O)C1CCCN(c2ccnc(-c3cnc4cnc(C(F)F)cn34)n2)C1 (stereo not drawn) [IV-177, 1-(2-(6-(Difluoromethyl)imidazo[1,2-a]pyrazin-3-yl)pyrimidin-4-yl)piperidine-3-sulfonamide]
< 5.30	6.00 to 7.00	NS(=O)(=O)N[C@H]1CCCN(c2ccnc(-c3cnc4cnc(C(F)F)cn34)n2)C1 [IV-179, 6-(Difluoromethyl)-3-[4-[(3S)-3-(sulfamoylamino)-1-piperidyl]pyrimidin-2-yl]imidazo[1,2-a]pyrazine]
< 5.30	6.00 to 7.00	NS(=O)(=O)N[C@@H]1CCCN(c2ccnc(-c3cnc4cnc(C(F)F)cn34)n2)C1 [IV-181, 6-(Difluoromethyl)-3-[4-[(3R)-3-(sulfamoylamino)-1-piperidyl]pyrimidin-2-yl]imidazo[1,2-a]pyrazine]
5.30 to 6.30	7.00 to 8.00	CC(=O)N1CCN(c2nccc(-c3cnc4cnc(C(N)=O)cn34)n2)CC1 [IV-182, 3-(2-(4-Acetylpiperazin-1-yl)pyrimidin-4-yl)imidazo[1,2-a]pyrazine-6-carboxamide]
< 5.30	6.00 to 7.00	CC(=O)N1CCN(c2cncc(-c3cnc4cnc(C(N)=O)cn34)n2)CC1 [IV-183, 3-(6-(4-Acetylpiperazin-1-yl)pyrazin-2-yl)imidazo[1,2-a]pyrazine-6-carboxamide]
> 6.30	7.00 to 8.00	CC(=O)N1CCN(c2cccc(-c3cnc4cnc(C(N)=O)cn34)n2)CC1 [IV-184, 3-(6-(4-Acetylpiperazin-1-yl)pyridin-2-yl)imidazo[1,2-a]pyrazine-6-carboxamide]
5.30 to 6.30	7.00 to 8.00	CC1CN(c2ccnc(-c3cnc4cnc(C(F)(F)F)cn34)n2)CC(c2cn[nH]c2)N1 (stereo not drawn) [IV-189, 3-(4-(3-Methyl-5-(1H-pyrazol-4-yl)piperazin-1-yl)pyrimidin-2-yl)-6-(trifluoromethyl)imidazo[1,2-a]pyrazine]
> 6.30	> 8.00	CC1CN(c2ccnc(-c3cnc4cnc(Cl)cn34)n2)CC(c2cn[nH]c2)O1 (stereo not drawn) [IV-193, 4-(2-(6-Chloroimidazo[1,2-a]pyrazin-3-yl)pyrimidin-4-yl)-2-methyl-6-(1H-pyrazol-4-yl)morpholine]
> 6.30	> 8.00	CC1CN(c2ccnc(-c3cnc4cnc(C#N)cn34)n2)CC(c2cn[nH]c2)O1 (stereo not drawn) [IV-194, 3-(4-(2-Methyl-6-(1H-pyrazol-4-yl)morpholino)pyrimidin-2-yl)imidazo[1,2-a]pyrazine-6-carbonitrile]
5.30 to 6.30	7.00 to 8.00	CC1CN(c2ccnc(-c3cnc4cnc(C(F)(F)F)cn34)n2)CC(c2cn[nH]c2)N1C (stereo not drawn) [IV-195, 3-(4-(3,4-Dimethyl-5-(1H-pyrazol-4-yl)piperazin-1-yl)pyrimidin-2-yl)-6-(trifluoromethyl)imidazo[1,2-a]pyrazine]
< 5.30	7.00 to 8.00	NC(=O)c1cn2c(-c3cccc(N4CCCCC4)n3)cnc2cn1 [IV-204, 3-(6-(Piperidin-1-yl)pyridin-2-yl)imidazo[1,2-a]pyrazine-6-carboxamide]
5.30 to 6.30	> 8.00	CC(=O)N1CCN(c2cccc(-c3cnc4cnc(-n5cccn5)cn34)n2)CC1 [IV-209, 1-(4-(6-(6-(1H-Pyrazol-1-yl)imidazo[1,2-a]pyrazin-3-yl)pyridin-2-yl)piperazin-1-yl)ethan-1-one]
5.30 to 6.30	> 8.00	NC(=O)c1cn2c(-c3cccc(N4CCN5C(=O)CCCC5C4)n3)cnc2cn1 (stereo not drawn) [IV-210, 3-(6-(6-Oxooctahydro-2H-pyrido[1,2-a]pyrazin-2-yl)pyridin-2-yl)imidazo[1,2-a]pyrazine-6-carboxamide]

pIC50 [1]	pKi [2]	Structure (SMILES)
5.30 to 6.30	> 8.00	FC(F)(F)c1cn2c(-c3nccc(N4CCNC(c5cn[nH]c5)C4)n3)cnc2cn1 (stereo not drawn) [IV-211, 3-(4-(3-(1H-Pyrazol-4-yl)piperazin-1-yl)pyrimidin-2-yl)-6-(trifluoromethyl)imidazo[1,2-a]pyrazine]
> 6.30	> 8.00	CC1CN(c2ccnc(-c3cnc4cnc(C(F)(F)F)cn34)n2)C(C)C(c2cn[nH]c2)N1 (stereo not drawn) [IV-222, 3-(4-(2,5-Dimethyl-3-(1H-pyrazol-4-yl)piperazin-1-yl)pyrimidin-2-yl)-6-(trifluoromethyl)imidazo[1,2-a]pyrazine]
> 6.30	> 8.00	C[C@H]1CN(c2ccnc(-c3cnc4cnc(C(F)(F)F)cn34)n2)[C@@H](C)[C@@H](c2cn[nH]c2)N1 [IV-224, 3-(4-((2S,3R,5S)-2,5-dimethyl-3-(1H-pyrazol-4-yl)piperazin-1-yl)pyrimidin-2-yl)-6-(trifluoromethyl)imidazo[1,2-a]pyrazine]
5.30 to 6.30	7.00 to 8.00	NC(=O)c1cn2c(-c3cccc(-c4cccc5[nH]ccc45)n3)cnc2cn1 [IV-225, 3-(6-(1H-Indol-4-yl)pyridin-2-yl)imidazo[1,2-a]pyrazine-6-carboxamide]
5.30 to 6.30	7.00 to 8.00	NC(=O)c1cn2c(-c3cccc(N4CCN5C(=O)CCC[C@H]5C4)n3)cnc2cn1 [IV-228, (S)-3-(6-(6-Oxooctahydro-2H-pyrido[1,2-a]pyrazin-2-yl)pyridin-2-yl)imidazo[1,2-a]pyrazine-6-carboxamide]
< 5.30	7.00 to 8.00	N#Cc1cn2c(-c3cccc(-c4cccc5[nH]ccc45)n3)cnc2cn1 [IV-234, 3-(6-(1H-Indol-4-yl)pyridin-2-yl)imidazo[1,2-a]pyrazine-6-carbonitrile]
> 6.30	> 8.00	CC1CN(c2ccnc(-c3cnc4cnc(Br)cn34)n2)C(C)C(c2cn[nH]c2)N1 (stereo not drawn) [IV-279, 6-Bromo-3-(4-(2,5-dimethyl-3-(1H-pyrazol-4-yl)piperazin-1-yl)pyrimidin-2-yl)imidazo[1,2-a]pyrazine]
5.30 to 6.30	> 8.00	CC1CN(c2ccnc(-c3cnc4cnc(C#N)cn34)n2)C(C)C(c2cn[nH]c2)N1 (stereo not drawn) [IV-305, 3-(4-(2,5-Dimethyl-3-(1H-pyrazol-4-yl)piperazin-1-yl)pyrimidin-2-yl)imidazo[1,2-a]pyrazine-6-carbonitrile]
5.30 to 6.30	> 8.00	CC1NC(c2cn[nH]c2)C(C)N(c2ccnc(-c3cnc4cnc(C(F)(F)F)cn34)n2)C1C (stereo not drawn) [IV-323, 6-(Trifluoromethyl)-3-(4-(2,3,6-trimethyl-5-(1H-pyrazol-4-yl)piperazin-1-yl)pyrimidin-2-yl)imidazo[1,2-a]pyrazine]
5.30 to 6.30	> 8.00	Brc1cn2c(-c3nccc(N4CCCC(c5c[nH]cn5)C4)n3)cnc2cn1 (stereo not drawn) [IV-340, 3-(4-(3-(1H-Imidazol-4-yl)piperidin-1-yl)pyrimidin-2-yl)-6-bromoimidazo[1,2-a]pyrazine]
< 5.30	7.00 to 8.00	N#Cc1cn2c(-c3nccc(N4CCCC(c5c[nH]cn5)C4)n3)cnc2cn1 (stereo not drawn) [IV-341, 3-(4-(3-(1H-Imidazol-4-yl)piperidin-1-yl)pyrimidin-2-yl)imidazo[1,2-a]pyrazine-6-carbonitrile]
> 6.30	> 8.00	Brc1cn2c(-c3nccc(N4CCCC(c5cn[nH]c5)C4)n3)cnc2cn1 (stereo not drawn) [IV-346, 3-(4-(3-(1H-Pyrazol-4-yl)piperidin-1-yl)pyrimidin-2-yl)-6-bromoimidazo[1,2-a]pyrazine]
< 5.30	6.00 to 7.00	Clc1cn2c(-c3nccc(N4CCNC(c5c[nH]cn5)C4)n3)cnc2cn1 (stereo not drawn) [IV-347, 3-(4-(3-(1H-Imidazol-4-yl)piperazin-1-yl)pyrimidin-2-yl)-6-chloroimidazo[1,2-a]pyrazine]
5.30 to 6.30	7.00 to 8.00	CC1CN(c2ccnc(-c3cnc4cnc(Cl)cn34)n2)C(C)C(c2c[nH]cn2)N1 (stereo not drawn) [IV-349, 3-(4-(3-(1H-Imidazol-4-yl)-2,5-dimethylpiperazin-1-yl)pyrimidin-2-yl)-6-chloroimidazo[1,2-a]pyrazine]
5.30 to 6.30	6.00 to 7.00	CC1(C)CN(c2ccnc(-c3cnc4cnc(Cl)cn34)n2)CC(c2cn[nH]c2)N1 (stereo not drawn) [IV-353, 6-Chloro-3-(4-(3,3-dimethyl-5-(1H-pyrazol-4-yl)piperazin-1-yl)pyrimidin-2-yl)imidazo[1,2-a]pyrazine]
< 5.30	7.00 to 8.00	CC1(C)CN(c2ccnc(-c3cnc4cnc(Br)cn34)n2)CC(c2cn[nH]c2)N1 (stereo not drawn) [IV-354, 6-Bromo-3-(4-(3,3-dimethyl-5-(1H-pyrazol-4-yl)piperazin-1-yl)pyrimidin-2-yl)imidazo[1,2-a]pyrazine]
